Assay: Gastrointestinal Symptom Rating Scale (GSRS)
Type: in vivo, human
Conditions: for Abdom Pain (combined score of GSRS 1, GSRS4, and GSRS5) / Diarrhea (combined score of GSRS11 and GSRS14) / GSRS1 Pain and discomfort in upper abdomen or stomach / GSRS2 Heartburn / GSRS3 Acid reflux / GSRS4 Hunger pangs / GSRS5 Nausea / GSRS6 Stomach rumbling / GSRS7 Stomach bloating / GSRS8 Burping / GSRS9 Passing gas or flatulence / GSRS11 Diarrhea / GSRS14 Urgent need to have a bowel movement / GSRS15 Sensation of not completely emptying the bowels / Ingestion (combined score of GSRS6, GSRS7, GSRS8, and GSRS9) / Reflux (combined score of GSRS2 and GSRS3) / Constipation (combined score of GSRS10, GSRS13, and GSRS14), 'Constipation Syndrome' / GSRS10 Constipation / GSRS13 Hard stools: GLU condition, mean ± SD; for Constipation (combined score of GSRS10, GSRS13, and GSRS14), 'Constipation Syndrome' / GSRS10 Constipation / GSRS13 Hard stools: hydrochloride
Description: The remainder of the study consisted of two identical patterns of testing with the exception of what supplementation protocol was followed. FIG. 1 provides a flowchart of the experimental design. Prior to each visit, food and physical activity logs were completed encompassing four days prior to the scheduled laboratory visit. The four days consisted of two weekend days and two weekdays. Each participant reported to the laboratory for a baseline measurement of height, weight, heart rate, and blood pressure. During this visit, participants completed the Bristol Stool Chart and Gastrointestinal Symptom Rating Scale (GSRS) to assess bowel habits and potential gastrointestinal symptoms. Participants were given instructions on how to collect a stool sample and were instructed to do so within 24 hours of each planned study visit. At the completion of this study visit, participants were provided with their first assigned supplement (either PLA [placebo] or GLU [glucosamine]) and instructed to begin supplementation 21 days prior to their second visit. Participants were instructed to collect their second stool sample on the day of their final supplementation dose. On the morning of their second study visit, participants reported to the laboratory after following identical pre-study instructions as previous visits (i.e., fasting, abstention from caffeine and exercise). Study participants again completed assessments for height, weight, heart rate, blood pressure, and questionnaires regarding their bowel habits and gastrointestinal symptoms while also providing their second stool sample and turning in completed food and activity logs. A washout period lasting a minimum of 14 days and a maximum of 21 days separated each phase of the crossover as shown in FIG. 1. […] In a double-blind manner, a glucosamine supplement (GLU) or a maltodextrin placebo (PLA) was distributed in identical opaque capsules to all participants. On a daily basis, participants were instructed to ingest three capsules, each containing 1,000 mg of glucosamine hydrochloride (GlucosaGreen®, TSI Group Ltd. MT, USA) or a placebo (maltodextrin) identical in appearance for a total of 21 days. Each visit at the beginning of the supplementation regimen (Visits 1 and 4, respectively; See FIG. 1) occurred on or before the first day of supplementation while the final day of supplementation occurred the day before each participant's follow-up visit for that study period (Visits 2 and 4, respectively). Participants were instructed to ingest the supplement 15-30 minutes before breakfast with eight fluid ounces of cold water. In the case of a missed dose, participants were instructed to consume the missed dose as soon as possible with a meal. […] The dose of maltodextrin used in the following examples was two to five-fold lower, respectively, than these investigations. Participants completed electronic (Qualtrics, Inc.) versions of the Bristol Stool Chart and the Gastrointestinal Symptoms Rating Scale (GSRS) at four time points throughout the entire study protocol. The first two questionnaires were completed before and after the first supplementation period while the final two questionnaires were collected before and after the second supplementation period. The Bristol Stool Chart requires participants to classify their bowel movements into one of seven different types of stool. Type 1 was classified as being “Separate hard lumps, like nuts (hard to pass)”, Type 2 being “Sausage-shaped, lumpy, uncomfortable to pass”, Type 3 being “Like a sausage, with cracks on its surface”, Type 4 being “Like a sausage or snake, smooth and soft”, Type 5 being “Soft blobs with clear-cut edges, passes easily”, Type 6 being “Fluffy pieces with ragged edges, a mushy stool”, and Type 7 being “Watery, no solid pieces, entirely liquid”. The Gastrointestinal Symptoms Rating Scale (GSRS), a 15-item clinical rating scale was completed a total of four times to assess symptoms related to gastrointestinal distress during the past week. […]

[1] = Post 21 days, 3 x 1,000 mg/day oral

Q: With `Cl.N[C@H]1C(O)O[C@H](CO)[C@@H](O)[C@@H]1O` (stereo partly shown) [GLU, glucosamine hydrochloride] as the molecule, how does the “Abdom Pain (combined score of GSRS 1, GSRS4, and GSRS5)” value [1] read?
A: Its value is 4.18 ± 1.66.

Q: What about the “Diarrhea (combined score of GSRS11 and GSRS14)” value [1] of the same molecule?
A: The value was 3.27 ± 1.56.

Q: And the “GSRS1 Pain and discomfort in upper abdomen or stomach” value [1]?
A: The value was 1.5 ± 0.7.

Q: What about the “GSRS2 Heartburn” value [1] of the same molecule?
A: Its value is 1.2 ± 0.4.

Q: What about the “GSRS3 Acid reflux” value [1] of the same molecule?
A: The value was 1.2 ± 0.4.

Q: What about the “GSRS4 Hunger pangs” value [1] of the same molecule?
A: Its value is 1.18 ± 0.4.

Q: And the “GSRS5 Nausea” value [1]?
A: Its value is 1.55 ± 1.21.

Q: And the “GSRS6 Stomach rumbling” value [1]?
A: The value was 2.2 ± 1.3.

Q: What about the “GSRS7 Stomach bloating” value [1] of the same molecule?
A: The value was 2.1 ± 1.22.

Q: And the “GSRS8 Burping” value [1]?
A: Its value is 1.2 ± 0.4.

Q: And the “GSRS9 Passing gas or flatulence” value [1]?
A: The value was 2.46 ± 1.21.

Q: What about the “GSRS11 Diarrhea” value [1] of the same molecule?
A: Its value is 1.73 ± 1.56.

Q: And the “GSRS14 Urgent need to have a bowel movement” value [1]?
A: The value was 1.55 ± 0.93.

Q: What about the “GSRS15 Sensation of not completely emptying the bowels” value [1] of the same molecule?
A: Its value is 1.09 ± 0.3.

Q: What about the “Ingestion (combined score of GSRS6, GSRS7, GSRS8, and GSRS9)” value [1] of the same molecule?
A: The value was 7.91 ± 2.98.

Q: What about the “Reflux (combined score of GSRS2 and GSRS3)” value [1] of the same molecule?
A: The value was 2.36 ± 0.67.

Q: And the “Constipation (combined score of GSRS10, GSRS13, and GSRS14), 'Constipation Syndrome'” value [1]?
A: Its value is 3.27±0.9.

Q: What about the “GSRS10 Constipation” value [1] of the same molecule?
A: Its value is 1.09±0.3.

Q: And the “GSRS13 Hard stools” value [1]?
A: The value was 1.09±0.3.

Q: What about the “Abdom Pain (combined score of GSRS 1, GSRS4, and GSRS5)” value (Pre (baseline)) of the same molecule?
A: The value was 4.27 ± 1.68.

Q: What about the “Diarrhea (combined score of GSRS11 and GSRS14)” value (Pre (baseline)) of the same molecule?
A: Its value is 2.27 ± 0.9.

Q: What about the “GSRS1 Pain and discomfort in upper abdomen or stomach” value (Pre (baseline)) of the same molecule?
A: Its value is 1.2 ± 0.4.

Q: And the “GSRS2 Heartburn” value (Pre (baseline))?
A: The value was 1.1 ± 0.3.

Q: What about the “GSRS3 Acid reflux” value (Pre (baseline)) of the same molecule?
A: The value was 1.0 ± 0.0.

Q: And the “GSRS4 Hunger pangs” value (Pre (baseline))?
A: The value was 1.82 ± 0.98.

Q: What about the “GSRS5 Nausea” value (Pre (baseline)) of the same molecule?
A: Its value is 1.27 ± 0.9.

Q: What about the “GSRS6 Stomach rumbling” value (Pre (baseline)) of the same molecule?
A: The value was 1.5 ± 0.69.

Q: What about the “GSRS7 Stomach bloating” value (Pre (baseline)) of the same molecule?
A: The value was 1.9 ± 1.22.

Q: What about the “GSRS8 Burping” value (Pre (baseline)) of the same molecule?
A: Its value is 1.2 ± 0.4.

Q: What about the “GSRS9 Passing gas or flatulence” value (Pre (baseline)) of the same molecule?
A: The value was 1.82 ± 0.75.

Q: And the “GSRS11 Diarrhea” value (Pre (baseline))?
A: The value was 1.0 ± 0.0.

Q: And the “GSRS14 Urgent need to have a bowel movement” value (Pre (baseline))?
A: The value was 1.27 ± 0.9.

Q: What about the “GSRS15 Sensation of not completely emptying the bowels” value (Pre (baseline)) of the same molecule?
A: Its value is 1.73 ± 1.1.

Q: And the “Ingestion (combined score of GSRS6, GSRS7, GSRS8, and GSRS9)” value (Pre (baseline))?
A: Its value is 6.45 ± 2.5.

Q: And the “Reflux (combined score of GSRS2 and GSRS3)” value (Pre (baseline))?
A: Its value is 2.09 ± 0.3.

Q: What about the “Constipation (combined score of GSRS10, GSRS13, and GSRS14), 'Constipation Syndrome'” value (Pre (baseline)) of the same molecule?
A: Its value is 5.09±3.45.

Q: And the “GSRS10 Constipation” value (Pre (baseline))?
A: Its value is 1.82±1.4.

Q: What about the “GSRS13 Hard stools” value (Pre (baseline)) of the same molecule?
A: The value was 1.55±1.04.

Q: And the “Abdom Pain combined score, %” value (PLA vs. GLU, between-group)?
A: The value was 4.2%.

Q: What about the “Constipation combined score, %” value (PLA vs. GLU, between-group) of the same molecule?
A: Its value is −33.3%.

Q: What about the “Diarrhea combined score, %” value (PLA vs. GLU, between-group) of the same molecule?
A: Its value is 30.6%.

Q: What about the “GSRS1, %” value (PLA vs. GLU, between-group) of the same molecule?
A: The value was 31.3%.

Q: What about the “GSRS2, %” value (PLA vs. GLU, between-group) of the same molecule?
A: Its value is −0.9%.

Q: And the “GSRS3, %” value (PLA vs. GLU, between-group)?
A: Its value is 20.0%.

Q: And the “GSRS4, %” value (PLA vs. GLU, between-group)?
A: The value was −11.3%.

Q: And the “GSRS5, %” value (PLA vs. GLU, between-group)?
A: The value was 35.4%.

Q: And the “GSRS6, %” value (PLA vs. GLU, between-group)?
A: The value was 37.6%.

Q: And the “GSRS7, %” value (PLA vs. GLU, between-group)?
A: The value was −30.7%.

Q: And the “GSRS8, %” value (PLA vs. GLU, between-group)?
A: Its value is −10%.

Q: And the “GSRS9, %” value (PLA vs. GLU, between-group)?
A: The value was 8.8%.

Q: What about the “GSRS10, %” value (PLA vs. GLU, between-group) of the same molecule?
A: The value was −64.9%.

Q: What about the “GSRS11, %” value (PLA vs. GLU, between-group) of the same molecule?
A: The value was 55.0%.

Q: What about the “GSRS13, %” value (PLA vs. GLU, between-group) of the same molecule?
A: Its value is −15.5%.

Q: What about the “GSRS14, %” value (PLA vs. GLU, between-group) of the same molecule?
A: Its value is 13.0%.

Q: What about the “GSRS15, %” value (PLA vs. GLU, between-group) of the same molecule?
A: Its value is −23.8%.

Q: And the “Ingestion combined score, %” value (PLA vs. GLU, between-group)?
A: Its value is −0.4%.

Q: What about the “Reflux combined score, %” value (PLA vs. GLU, between-group) of the same molecule?
A: The value was 8.4%.

Q: What about the “Stomach bloating ratings (GSRS7), change from baseline” value (Post vs Pre, p=0.32) of the same molecule?
A: The value was “no changes were observed”.

Reference: US20220395522A1, “Methods of Use of Glucosamine for Increasing Nitrogen Retention” (TSI Bioproducts (Xuzhou) Co., Ltd., priority 2021, published 2022)
